Results: the NIST ThermoML archive (doi:10.1021/je2007378)
Numbers after ± are expanded uncertainties.

What was measured:
[1] = 298.15 K; 101.33 kPa; Liquid; Vibrating tube method
[2] = excess molar enthalpy (molar enthalpy of mixing); xn = mol fraction of the nth substance listed; details: 298.15 K, 101 kPa, Liquid, Calvet calorimetry

Compound | molar volume [1] | excess molar enthalpy ([2]; x1 = 0.5) | also measured
C[Si]1(C)O[Si](C)(C)O[Si](C)(C)O[Si](C)(C)O[Si](C)(C)O1 [decamethylcyclopentasiloxane] | 0.0003889 ± 9.1e-07 m3/mol |  | 
C[Si]1(C)O[Si](C)(C)O[Si](C)(C)O[Si](C)(C)O1 [octamethylcyclotetrasiloxane] | 0.0003121 ± 1e-07 m3/mol |  | 
C[Si](C)(C)O[Si](C)(C)O[Si](C)(C)O[Si](C)(C)O[Si](C)(C)C [dodecamethylpentasiloxane] + CCCCCCC |  | 0.239 ± 0.239 kcal/mol | 
C[Si](C)(C)O[Si](C)(C)O[Si](C)(C)C [octamethyltrisiloxane] + CCCCCCC |  | 0.239 ± 0.239 kcal/mol | 
C[Si](C)(C)O[Si](C)(C)O[Si](C)(C)O[Si](C)(C)C [decamethyltetrasiloxane] | 0.0003662 ± 7.9e-07 m3/mol |  | 
CCCCCCC [heptane] | 0.0001474 ± 5e-08 m3/mol |  | 
C[Si](C)(C)O[Si](C)(C)C [hexamethyldisiloxane] | 0.000214 ± 6e-08 m3/mol |  | 
C[Si]1(C)O[Si](C)(C)O[Si](C)(C)O[Si](C)(C)O[Si](C)(C)O1 [decamethylcyclopentasiloxane] + CCCCCCC |  |  | excess molar enthalpy ([2]; x2 = 0.5): 0.239 ± 0.239 kcal/mol
C[Si](C)(C)O[Si](C)(C)C [hexamethyldisiloxane] + CCCCCCC |  | 1.2 ± 0.239 kcal/mol | 
C[Si](C)(C)O[Si](C)(C)O[Si](C)(C)O[Si](C)(C)O[Si](C)(C)C [dodecamethylpentasiloxane] | 0.0004424 ± 9.7e-07 m3/mol |  | 
C[Si]1(C)O[Si](C)(C)O[Si](C)(C)O[Si](C)(C)O1 [octamethylcyclotetrasiloxane] + CCCCCCC |  |  | excess molar enthalpy ([2]; x2 = 0.5): 0.239 ± 0.239 kcal/mol
C[Si](C)(C)O[Si](C)(C)O[Si](C)(C)C [octamethyltrisiloxane] | 0.0002903 ± 3e-07 m3/mol |  | 
C[Si](C)(C)O[Si](C)(C)O[Si](C)(C)O[Si](C)(C)C [decamethyltetrasiloxane] + CCCCCCC |  | 0.239 ± 0.239 kcal/mol | 
